Results published in patent publication US12522595B2, “Bicyclic ether O-glycoprotein-2-acetamido-2-deoxy-3-D-glucopyranosidase inhibitors” (BIOGEN MA INC., priority 2019, dated 2026).

Target: T1, Recombinant full length human OGA enzyme (Homo sapiens, UniProt O60502)
T1 construct: Recombinant full length human OGA enzyme was purchased from Origene; purchased Origene
T1 sequence (O60502 1-916): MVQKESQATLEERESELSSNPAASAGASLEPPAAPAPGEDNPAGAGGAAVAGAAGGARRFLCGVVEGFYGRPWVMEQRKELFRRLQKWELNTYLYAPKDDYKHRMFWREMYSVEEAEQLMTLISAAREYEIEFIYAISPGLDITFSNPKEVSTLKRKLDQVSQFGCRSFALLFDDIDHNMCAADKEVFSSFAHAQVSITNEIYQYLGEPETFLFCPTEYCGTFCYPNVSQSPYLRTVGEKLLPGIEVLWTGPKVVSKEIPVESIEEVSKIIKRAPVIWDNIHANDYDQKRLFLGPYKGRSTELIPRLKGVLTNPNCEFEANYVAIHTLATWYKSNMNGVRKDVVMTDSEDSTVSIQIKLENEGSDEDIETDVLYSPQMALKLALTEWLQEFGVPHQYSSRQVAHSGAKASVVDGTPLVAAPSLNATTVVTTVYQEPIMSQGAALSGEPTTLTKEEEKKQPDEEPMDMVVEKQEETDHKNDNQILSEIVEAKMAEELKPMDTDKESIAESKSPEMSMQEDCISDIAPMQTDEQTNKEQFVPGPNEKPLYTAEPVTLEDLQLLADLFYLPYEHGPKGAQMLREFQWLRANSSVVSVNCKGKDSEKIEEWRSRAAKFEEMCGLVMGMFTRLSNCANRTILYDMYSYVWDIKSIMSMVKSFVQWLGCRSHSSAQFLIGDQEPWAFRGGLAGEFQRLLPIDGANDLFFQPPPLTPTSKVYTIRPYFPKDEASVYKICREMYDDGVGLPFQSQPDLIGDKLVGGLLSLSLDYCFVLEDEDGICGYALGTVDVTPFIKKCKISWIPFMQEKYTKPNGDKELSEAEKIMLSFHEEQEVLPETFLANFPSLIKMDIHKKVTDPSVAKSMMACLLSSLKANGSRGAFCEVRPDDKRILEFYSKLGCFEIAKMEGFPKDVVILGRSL
Assay: OGA enzyme inhibition biochemical assay
Conditions: 1 nM OGA, 100 μM 4-MUGlcNAc (Km), pH 6.4, 90 minutes at room temperature, 10-point dose-response from 20 μM
Outline: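 1 nM OGA with 100 μM 4-MUGlcNAc (Km) in McIlvaine buffer pH 6.4, 0.01% BSA, 90 min at room temperature; quenched with 3M glycine pH 10, fluorescence Ex 355/Em 460 nm. 10-point, 4-fold dilutions from 20 μM; 4-parameter variable-slope fit.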

IC50 [nM] | SMILES
< 1 | CC(=O)Nc1ncc(CN2C[C@H](Oc3nccc4nccn34)C[C@@H]2C)s1 [Example 97, N-(5-(((2S,4R)-4-(imidazo[1,2-c]pyrimidin-5-yloxy)-2-methylpyrrolidin-1-yl)methyl)thiazol-2-yl)acetamide]
< 1 | CC(=O)Nc1nc(F)c(CN2C[C@H](Oc3ccn4ncnc4c3)C[C@@H]2C)s1 [Example 107, N-(5-(((2S,4R)-4-([1,2,4]triazolo[1,5-a]pyridin-7-yloxy)-2-methylpyrrolidin-1-yl)methyl)-4-fluorothiazol-2-yl)acetamide]
< 1 | CC(=O)Nc1nc(F)c(CN2C[C@H](Oc3nncc4cc(F)ccc34)C[C@@H]2C)s1 [Example 133, N-(4-fluoro-5-(((2S,4R)-4-((6-fluorophthalazin-1-yl)oxy)-2-methylpyrrolidin-1-yl)methyl)thiazol-2-yl)acetamide]
< 1 | CC(=O)Nc1nc(F)c(CN2C[C@H](Oc3nccn4ccnc34)C[C@@H]2C)s1 [Example 96, N-(4-fluoro-5-(((2S,4R)-4-(imidazo[1,2-a]pyrazin-8-yloxy)-2-methylpyrrolidin-1-yl)methyl)thiazol-2-yl)acetamide]
< 1 | CC(=O)Nc1nc(F)c(CN2C[C@H](Oc3nccc4c3cnn4C)C[C@@H]2C)s1 [Example 138, N-(4-fluoro-5-(((2S,4R)-2-methyl-4-((1-methyl-1H-pyrazolo[4,3-c]pyridin-4-yl)oxy)pyrrolidin-1-yl)methyl)thiazol-2-yl)acetamide]
< 1 | CC(=O)Nc1ncc(CN2C[C@H](Oc3ccn4nccc4n3)C[C@@H]2C)s1 [Example 61, N-(5-(((2S,4R)-2-methyl-4-(pyrazolo[1,5-a]pyrimidin-5-yloxy)pyrrolidin-1-yl)methyl)thiazol-2-yl)acetamide]
2.1 | CC(=O)Nc1ncc(CN2C[C@H](Oc3nccc4occc34)C[C@@H]2C)s1 [Example 22, N-(5-(((2S,4R)-4-(furo[3,2-c]pyridin-4-yloxy)-2-methylpyrrolidin-1-yl)methyl)thiazol-2-yl)acetamide]
5.3 | CC(=O)Nc1ncc(CN2C[C@H](Oc3nccn4ccnc34)C[C@@H]2C)s1 [Example 95, N-(5-(((2S,4R)-4-(imidazo[1,2-a]pyrazin-8-yloxy)-2-methylpyrrolidin-1-yl)methyl)thiazol-2-yl)acetamide]
< 1 | CC(=O)Nc1nc(F)c(CN2C[C@H](Oc3ncnc4c3cnn4C)C[C@@H]2C)s1 [Example 143, N-(4-fluoro-5-(((2S,4R)-2-methyl-4-((1-methyl-1H-pyrazolo[3,4-d]pyrimidin-4-yl)oxy)pyrrolidin-1-yl)methyl)thiazol-2-yl)acetamide]
3.8 | CC(=O)Nc1nc(F)c(CN2C[C@H](Oc3nccc4nccnc34)C[C@@H]2C)s1 [Example 115, N-(4-fluoro-5-(((2S,4R)-2-methyl-4-(pyrido[3,4-b]pyrazin-5-yloxy)pyrrolidin-1-yl)methyl)thiazol-2-yl)acetamide]
< 1 | CC(=O)Nc1nc(F)c(CN2C[C@H](Oc3ccc4cn(C)nc4c3)C[C@@H]2C)s1 [Example 51, N-(4-fluoro-5-(((2S,4R)-2-methyl-4-((2-methyl-2H-indazol-6-yl)oxy)pyrrolidin-1-yl)methyl)thiazol-2-yl)acetamide]
< 1 | CC(=O)Nc1nc(F)c(CN2C[C@H](Oc3cccc4cn(C)nc34)C[C@@H]2C)s1 [Example 161, N-(4-fluoro-5-(((2S,4R)-2-methyl-4-((2-methyl-2H-indazol-7-yl)oxy)pyrrolidin-1-yl)methyl)thiazol-2-yl)acetamide]
< 1 | CC(=O)Nc1ncc(CN2C[C@H](Oc3ccc4c(Cl)nccc4c3)C[C@@H]2C)s1 [Example 1, N-(5-(((2S,4R)-4-((1-chloroisoquinolin-6-yl)oxy)-2-methylpyrrolidin-1-yl)methyl)thiazol-2-yl)acetamide]
4.5 | CC(=O)Nc1ncc(CN2C[C@H](Oc3nccc4ccccc34)C[C@@H]2C)s1 [Example 26, N-(5-(((2S,4R)-4-(isoquinolin-1-yloxy)-2-methylpyrrolidin-1-yl)methyl)thiazol-2-yl)acetamide]
< 1 | CC(=O)Nc1nc(F)c(CN2C[C@H](Oc3ccc4occc4n3)C[C@@H]2C)s1 [Example 66, N-(4-fluoro-5-(((2S,4R)-4-(furo[3,2-b]pyridin-5-yloxy)-2-methylpyrrolidin-1-yl)methyl)thiazol-2-yl)acetamide]
< 1 | CC(=O)Nc1nc(F)c(CN2C[C@H](Oc3cccn4ccnc34)C[C@@H]2C)s1 [Example 157, N-(4-fluoro-5-(((2S,4R)-4-(imidazo[1,2-a]pyridin-8-yloxy)-2-methylpyrrolidin-1-yl)methyl)thiazol-2-yl)acetamide]
< 1 | CC(=O)Nc1ncc(CN2C[C@H](Oc3ccc4ccc(F)cc4n3)C[C@@H]2C)s1 [Example 6, N-(5-(((2S,4R)-4-((7-fluoroquinolin-2-yl)oxy)-2-methylpyrrolidin-1-yl)methyl)thiazol-2-yl)acetamide]
< 1 | CC(=O)Nc1ncc(CN2C[C@H](Oc3nccc4ccsc34)C[C@@H]2C)s1 [Example 11, N-(5-(((2S,4R)-2-methyl-4-(thieno[2,3-c]pyridin-7-yloxy)pyrrolidin-1-yl)methyl)thiazol-2-yl)acetamide]
< 1 | CC(=O)Nc1ncc(CN2C[C@H](Oc3ccnc4cc(F)ccc34)C[C@@H]2C)s1 [Example 17, N-(5-(((2S,4R)-4-((7-fluoroquinolin-4-yl)oxy)-2-methylpyrrolidin-1-yl)methyl)thiazol-2-yl)acetamide]
< 1 | CC(=O)Nc1ncc(CN2C[C@H](Oc3ccc4nnc(C(F)(F)F)n4n3)C[C@@H]2C)s1 [Example 18, N-(5-(((2S,4R)-2-methyl-4-((3-(trifluoromethyl)-[1,2,4]triazolo[4,3-b]pyridazin-6-yl)oxy)pyrrolidin-1-yl)methyl)thiazol-2-yl)acetamide]
1.6 | CC(=O)Nc1ncc(CN2C[C@H](Oc3nn4c(C(F)(F)F)nnc4c(C)c3C)C[C@@H]2C)s1 [Example 20, N-(5-(((2S,4R)-4-((7,8-dimethyl-3-(trifluoromethyl)-[1,2,4]triazolo[4,3-b]pyridazin-6-yl)oxy)-2-methylpyrrolidin-1-yl)methyl)thiazol-2-yl)acetamide]
< 1 | CC(=O)Nc1nc(F)c(CN2C[C@H](Oc3nccc4nccn34)C[C@@H]2C)s1 [Example 98, N-(4-fluoro-5-(((2S,4R)-4-(imidazo[1,2-c]pyrimidin-5-yloxy)-2-methylpyrrolidin-1-yl)methyl)thiazol-2-yl)acetamide]
4.3 | CC(=O)Nc1nc(F)c(CN2C[C@H](Oc3nccc4cn(C)nc34)C[C@@H]2C)s1 [Example 137, N-(4-fluoro-5-(((2S,4R)-2-methyl-4-((2-methyl-2H-pyrazolo[3,4-c]pyridin-7-yl)oxy)pyrrolidin-1-yl)methyl)thiazol-2-yl)acetamide]
110 | CC(=O)Nc1ncc(CN2C[C@H](Oc3ncnc4cc(F)c(F)cc34)C[C@@H]2C)s1 [Example 35, N-(5-(((2S,4R)-4-((6,7-difluoroquinazolin-4-yl)oxy)-2-methylpyrrolidin-1-yl)methyl)thiazol-2-yl)acetamide]
< 1 | CC(=O)Nc1ncc(CN2C[C@H](Oc3ccc4ccn(C)c4n3)C[C@@H]2C)s1 [Example 162, N-(5-(((2S,4R)-2-methyl-4-((1-methyl-1H-pyrrolo[2,3-b]pyridin-6-yl)oxy)pyrrolidin-1-yl)methyl)thiazol-2-yl)acetamide]
< 1 | CC(=O)Nc1ncc(CN2C[C@H](Oc3cc4cn(C)nc4cn3)C[C@@H]2C)s1 [Example 87, N-(5-(((2S,4R)-2-methyl-4-((2-methyl-2H-pyrazolo[3,4-c]pyridin-5-yl)oxy)pyrrolidin-1-yl)methyl)thiazol-2-yl)acetamide]
< 1 | CC(=O)Nc1nc(F)c(CN2C[C@H](Oc3ccn4nccc4n3)C[C@@H]2C)s1 [Example 62, N-(4-fluoro-5-(((2S,4R)-2-methyl-4-(pyrazolo[1,5-a]pyrimidin-5-yloxy)pyrrolidin-1-yl)methyl)thiazol-2-yl)acetamide]
< 1 | CC(=O)Nc1ncc(CN2C[C@H](Oc3c(Cl)ccn4ccnc34)C[C@@H]2C)s1 [Example 38, N-(5-(((2S,4R)-4-((7-chloroimidazo[1,2-a]pyridin-8-yl)oxy)-2-methylpyrrolidin-1-yl)methyl)thiazol-2-yl)acetamide]
